# Where a name gives a salt, the structure may show the parent alone.
# Molecular target: Recombinant Human (rh) DPP1 (Homo sapiens, UniProt P53634)
# Assay: Fluorescence Assay for Recombinant Human (rh) DPP1
# Assay type: biochemical
# Settings: rhDPP1; substrate H-Gly-Arg-AMC; pH5.0; 30 min pre-incubation, 60 min reaction at 22° C.; highest concentration 10 μM; read-out: DPP1 activity, pIC50 (converted)
# Experimental: Fluorescence Assay for Recombinant Human (rh) DPP1
# The activity of DPP1 was determined by measuring the enzymatic release of aminomethyl coumarin (AMC) from the peptide substrate (H-Gly-Arg-AMC), which leads to an increase in fluorescence intensity at λex=350 nm and λem=450 nm. The assay was carried out in black 384 well plates in a final volume of 50 μl at 22° C. The assay conditions contained the following: 25 mM piperazine buffer pH5.0; 50 mM NaCl, 5 mM DTT; 0.01% (v/v) Triton X-100; 100 μM H-Gly-Arg-AMC and rhDPP1 ([…]). Potential inhibitors were made up in DMSO and then diluted in the assay to give a final concentration of 1% (v/v) DMSO. A 12-point half-log dilution of the inhibitors (highest concentration 10 μM) was tested and the pIC50 determined using a 4-parameter logistic equation in a non-linear curve fitting routine. A standard DPP1 inhibitor (vinyl sulfone, see below) was used as a positive control in the assay. Routinely, inhibitors were pre-incubated with rhDPP1 for 30 min prior to the addition of the peptide substrate to start the reaction for a further 60 min at 22° C. After that the plates were immediately read in a fluorescence plate reader using the above emission and excitation wavelengths [modified from Kam, C M, Gotz, M G, Koot, G, McGuire, M J, Thiele, D L, Hudig, D & Powers, J C (2004). Arch Biochem Biophys, 427, 123-134 & McGuire, M J, Lipsky, P E & Thiele, D L (1992). Arch Biochem Biophys, 295, 280-288].
# Chain of Recombinant Human (rh) DPP1 (P53634 25-463): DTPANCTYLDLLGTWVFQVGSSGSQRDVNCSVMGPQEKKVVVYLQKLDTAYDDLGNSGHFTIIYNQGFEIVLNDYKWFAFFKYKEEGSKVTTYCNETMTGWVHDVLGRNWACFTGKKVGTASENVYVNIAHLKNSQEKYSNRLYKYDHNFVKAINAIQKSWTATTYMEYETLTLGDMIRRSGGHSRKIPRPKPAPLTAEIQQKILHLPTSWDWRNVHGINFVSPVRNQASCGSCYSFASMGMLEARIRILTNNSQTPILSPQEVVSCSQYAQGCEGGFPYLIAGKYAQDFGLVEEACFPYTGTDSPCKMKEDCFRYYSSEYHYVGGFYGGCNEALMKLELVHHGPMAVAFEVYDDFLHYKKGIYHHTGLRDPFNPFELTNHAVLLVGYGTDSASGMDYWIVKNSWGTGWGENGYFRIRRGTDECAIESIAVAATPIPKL
row,Structure (SMILES),IC50 [nM]
1,"COc1ccc(-c2ccc(C[C@@H](C#N)NC(=O)[C@@H]3CCCCN3)cc2)cc1OC [Example 32, (2S)-N-[(1S)-1-Cyano-2-[4-(3,4-dimethoxyphenyl)phenyl]ethyl]piperidine-2-carboxamide trifluoroacetate]",158
2,"COc1ccc(-c2ccc(C[C@@H](C#N)NC(=O)[C@@H]3CCCCN3)cc2)c(OC)c1 [Example 33, (2S)-N-[(1S)-1-Cyano-2-[4-(2,4-dimethoxyphenyl)phenyl]ethyl]piperidine-2-carboxamide trifluoroacetate]",200
3,"N#C[C@H](Cc1ccc(-c2cccc(C(N)=O)c2)cc1)NC(=O)[C@@H]1CCCCN1 [Example 34, (2S)-N-[(1S)-2-[4-(3-Carbamoylphenyl)phenyl]-1-cyano-ethyl]piperidine-2-carboxamide trifluoroacetate]",200
4,"N#C[C@H](Cc1ccc(-c2ccc3c(c2)OCCO3)cc1)NC(=O)[C@@H]1CCCCN1 [Example 35, (2S)-N-[(1S)-1-Cyano-2-[4-(2,5-dioxabicyclo[4.4.0]deca-7,9,11-trien-8-yl)phenyl]ethyl]piperidine-2-carboxamide trifluoroacetate]",251
5,"N#C[C@H](Cc1ccc(-c2ccc(CN)cc2)cc1)NC(=O)[C@@H]1CCCCN1 [Example 36, (2S)-N-[(1S)-2-[4-[4-(Aminomethyl)phenyl]phenyl]-1-cyano-ethyl]piperidine-2-carboxamide trifluoroacetate]",251
6,"CN(C)c1ncc(-c2ccc(C[C@@H](C#N)NC(=O)[C@@H]3CCCCN3)cc2)cn1 [Example 37, (2S)-N-[(1S)-1-Cyano-2-[4-(2-dimethylaminopyrimidin-5-yl)phenyl]ethyl]piperidine-2-carboxamide trifluoroacetate]",316
7,"Cc1cscc1-c1ccc(C[C@@H](C#N)NC(=O)[C@@H]2CCCCN2)cc1 [Example 38, (2S)-N-[(1S)-1-Cyano-2-[4-(4-methylthiophen-3-yl)phenyl]ethyl]piperidine-2-carboxamide trifluoroacetate]",316
8,"CCCOc1ccc(-c2ccc(C[C@@H](C#N)NC(=O)[C@@H]3CCCCN3)cc2)cc1F [Example 39, (2S)-N-[(1S)-1-Cyano-2-[4-(3-fluoro-4-propoxy-phenyl)phenyl]ethyl]pipe-ridine-2-carboxamide trifluoroacetate]",316
9,"COc1ncccc1-c1ccc(C[C@@H](C#N)NC(=O)[C@@H]2CCCCN2)cc1 [Example 40, (2S)-N-[(1S)-1-Cyano-2-[4-(2-methoxypyridin-3-yl)phenyl]ethyl]piperidine-2-carboxamide trifluoroacetate]",316
10,"Cn1nccc1-c1ccc(C[C@@H](C#N)NC(=O)[C@@H]2CCCCN2)cc1 [Example 41, (2S)-N-[(1S)-1-Cyano-2-[4-(2-methylpyrazol-3-yl)phenyl]ethyl]piperidine-2-carboxamide trifluoroacetate]",398
11,"CN(C)C(=O)c1cccc(-c2ccc(C[C@@H](C#N)NC(=O)[C@@H]3CCCCN3)cc2)c1 [Example 42, (2S)-N-[(1S)-1-Cyano-2-[4-[3-(dimethylcarbamoyl)phe-nyl]phenyl]ethyl]piperi-dine-2-carboxamide trifluoroacetate]",501
12,"CCS(=O)(=O)c1ccc(-c2ccc(C[C@@H](C#N)NC(=O)[C@@H]3CCCCN3)cc2)c(C)c1 [Example 43, (2S)-N-[(1S)-1-Cyano-2-[4-(4-ethylsulfonyl-2-methyl-phenyl)phenyl]ethyl]pipe-ridine-2-carboxamide trifluoroacetate]",631
13,"COc1c(F)cc(F)cc1-c1ccc(C[C@@H](C#N)NC(=O)[C@@H]2CCCCN2)cc1 [Example 44, (2S)-N-[(1S)-1-Cyano-2-[4-(3,5-difluoro-2-methoxy-phenyl)phenyl]ethyl]pipe-ridine-2-carboxamide trifluoroacetate]",631
14,"N#C[C@H](Cc1ccc(-c2cccc(CO)c2)cc1)NC(=O)[C@@H]1CCCCN1 [Example 45, (2S)-N-[(1S)-1-Cyano-2-[4-[3-(hydroxymethyl)phenyl]phenyl]ethyl]piperidine-2-carboxamide trifluoroacetate]",794
15,"COc1ncc(-c2ccc(C[C@@H](C#N)NC(=O)[C@@H]3CCCCN3)cc2)cn1 [Example 46, (2S)-N-[(1S)-1-Cyano-2-[4-(2-methoxypyrimidin-5-yl)phenyl]ethyl]piperidine-2-carboxamide trifluoroacetate]",1260
16,"CN1CCN(c2ccc(-c3ccc(C[C@@H](C#N)NC(=O)[C@@H]4CCCCN4)cc3)cn2)CC1 [Example 47, (2S)-N-[(1S)-1-Cyano-2-[4-[6-(4-methylpiperazin-1-yl)pyridin-3-yl]phenyl]ethyl]piperidine-2-carboxamide trifluoroacetate]",1260

row,Structure (SMILES),IC50 [nM]
1,"N#C[C@H](Cc1ccc(-c2ccccc2O)cc1)NC(=O)[C@@H]1CCCCN1 [Example 48, (2S)-N-[(1S)-1-Cyano-2-[4-(2-hydroxyphenyl)phenyl]ethyl]piperidine-2-carboxamide trifluoroacetate]",1580
2,"N#C[C@H](Cc1ccc(-c2cccc3cccnc23)cc1)NC(=O)[C@@H]1CCCCN1 [Example 49, (2S)-N-[(1S)-1-Cyano-2-(4-quinolin-8-ylphenyl)phenyl]piperidine-2-carboxamide trifluoroacetate]",2000
3,"Cc1ccccc1-c1ccc(C[C@@H](C#N)NC(=O)[C@@H]2CCCCN2)cc1 [Example 50, (2S)-N-[(1S)-1-Cyano-2-[4-(2-methylphenyl)phenyl]eth-yl]piperidine-2-carboxamide trifluoroacetate]",2000
4,"N#C[C@H](Cc1ccc(-c2ccccc2OCc2ccccc2)cc1)NC(=O)[C@@H]1CCCCN1 [Example 51, (2S)-N-[(1S)-1-Cyano-2-[4-(2-phenylmethoxyphenyl)phenyl]ethyl]piperidine-2-carboxamide trifluoroacetate]",2000
5,"Cc1ncccc1-c1ccc(C[C@@H](C#N)NC(=O)[C@@H]2CCCCN2)cc1 [Example 52, (2S)-N-[(1S)-1-Cyano-2-[4-(2-methylpyridin-3-yl)phenyl]ethyl]piperidine-2-carboxamide trifluoroacetate]",3160
6,"N#Cc1ccc(-c2ccc(C[C@@H](C#N)NC(=O)[C@@H]3CCCCN3)cc2)cn1 [Example 53, (S)-N-((S)-1-Cyano-2-(4-(6-cyanopyridin-3-yl)phenyl)ethyl)piperidine-2-carboxamide]",31.6
7,"N#C[C@H](Cc1ccc(-c2ccc3sc(=O)n(CCO)c3c2)cc1)NC(=O)[C@@H]1CCCCN1 [Example 54, (S)-N-((S)-1-Cyano-2-(4-(3-(2-hydroxyethyl)-2-oxo-2,3-dihydrobenzo[d]thiazol-5-yl)phenyl)ethyl)piperidine-2-carboxamide]",5.01
8,"COCCn1c(=O)sc2ccc(-c3ccc(C[C@@H](C#N)NC(=O)[C@@H]4CCCCN4)cc3)cc21 [Example 55, (S)-N-((S)-1-cyano-2-(4-(3-(2-methoxyethyl)-2-oxo-2,3-dihydrobenzo[d]thiazol-5-yl)phenyl)ethyl)piperidine-2-carboxamide]",5.01
9,"N#Cc1ccc(-c2ccc(C[C@@H](C#N)NC(=O)[C@@H]3CCCCN3)cc2)cc1F [Example 56, (S)-N-((S)-1-Cyano-2-(4′-cyano-3′-fluorobiphenyl-4-yl)ethyl)piperidine-2-carboxamide]",10
10,"CSc1cc(-c2ccc(C[C@@H](C#N)NC(=O)[C@@H]3CCCCN3)cc2)ccc1C#N [Example 57, (S)-N-((S)-1-Cyano-2-(4′-cyano-3′-(methylthio)biphenyl-4-yl)ethyl)-piperidine-2-carboxamide]",3.16
11,"CS(=O)(=O)c1cc(-c2ccc(C[C@@H](C#N)NC(=O)[C@@H]3CCCCN3)cc2)ccc1C#N [Example 58, (S)-N-((S)-1-Cyano-2-(4′-cyano-3′-(methylsulfonyl)biphenyl-4-yl)ethyl)piperidine-2-carboxamide]",15.8
12,"CCS(=O)(=O)c1cc(-c2ccc(C[C@@H](C#N)NC(=O)[C@@H]3CCCCN3)cc2)ccc1C#N [Example 59, (S)-N-((S)-1-Cyano-2-(4′-cyano-3′-(ethylsulfonyl)biphenyl-4-yl)ethyl)piperidine-2-carboxamide]",15.8
13,"CCCS(=O)(=O)c1cc(-c2ccc(C[C@@H](C#N)NC(=O)[C@@H]3CCCCN3)cc2)ccc1C#N [Example 60, (S)-N-((S)-1-Cyano-2-(4′-cyano-3′-(propylsulfonyl)biphenyl-4-yl)ethyl)piperidine-2-carboxamide]",20
14,"C[S+]([O-])c1cc(-c2ccc(C[C@@H](C#N)NC(=O)[C@@H]3CCCCN3)cc2)ccc1C(N)=O (stereo partly drawn) [Example 61, (2S)-N-((1S)-2-(4′-Carbamoyl-3′-(methylsulfinyl)biphenyl-4-yl)-1-cyanoethyl)piperidine-2-carboxamide]",39.8
15,"Cc1nccn1-c1cc(-c2ccc(C[C@@H](C#N)NC(=O)[C@@H]3CCCCN3)cc2)ccc1C#N [Example 62, (2S)-N-((1S)-1-Cyano-2-(4′-cyano-3′-(2-methyl-1H-imidazol-1-yl)biphenyl-4-yl)ethyl)piperidine-2-carboxamide]",15.8
